# Results from paper PMC4929832 (Nature, 2016).
# What was measured:
# [1] = target: PIM1 (Homo sapiens, UniProt P11309); assay: kinase panel; assay type: biochemical
# [2] = target: BLK (Homo sapiens, UniProt P51451); assay: kinase panel; assay type: biochemical
# [3] = target: MRCK-BETA (Homo sapiens, UniProt Q9Y5S2); assay: kinase panel; assay type: biochemical
# [4] = target: COX-1 (Homo sapiens, UniProt P23219); assay: COX-1 assay; assay type: biochemical
# [5] = target: MARK3 (Homo sapiens, UniProt P27448); assay: kinase panel; assay type: biochemical
# [6] = target: AMP-A1B1G1 (Homo sapiens, UniProt Q13131); assay: kinase panel; assay type: biochemical
# [7] = target: SRPK2 (Homo sapiens, UniProt P78362); assay: kinase panel; assay type: biochemical
# [8] = target: HIPK3 (Homo sapiens, UniProt Q9H422); assay: kinase panel; assay type: biochemical
# Chain of HIPK3 (Q9H422 whole entry): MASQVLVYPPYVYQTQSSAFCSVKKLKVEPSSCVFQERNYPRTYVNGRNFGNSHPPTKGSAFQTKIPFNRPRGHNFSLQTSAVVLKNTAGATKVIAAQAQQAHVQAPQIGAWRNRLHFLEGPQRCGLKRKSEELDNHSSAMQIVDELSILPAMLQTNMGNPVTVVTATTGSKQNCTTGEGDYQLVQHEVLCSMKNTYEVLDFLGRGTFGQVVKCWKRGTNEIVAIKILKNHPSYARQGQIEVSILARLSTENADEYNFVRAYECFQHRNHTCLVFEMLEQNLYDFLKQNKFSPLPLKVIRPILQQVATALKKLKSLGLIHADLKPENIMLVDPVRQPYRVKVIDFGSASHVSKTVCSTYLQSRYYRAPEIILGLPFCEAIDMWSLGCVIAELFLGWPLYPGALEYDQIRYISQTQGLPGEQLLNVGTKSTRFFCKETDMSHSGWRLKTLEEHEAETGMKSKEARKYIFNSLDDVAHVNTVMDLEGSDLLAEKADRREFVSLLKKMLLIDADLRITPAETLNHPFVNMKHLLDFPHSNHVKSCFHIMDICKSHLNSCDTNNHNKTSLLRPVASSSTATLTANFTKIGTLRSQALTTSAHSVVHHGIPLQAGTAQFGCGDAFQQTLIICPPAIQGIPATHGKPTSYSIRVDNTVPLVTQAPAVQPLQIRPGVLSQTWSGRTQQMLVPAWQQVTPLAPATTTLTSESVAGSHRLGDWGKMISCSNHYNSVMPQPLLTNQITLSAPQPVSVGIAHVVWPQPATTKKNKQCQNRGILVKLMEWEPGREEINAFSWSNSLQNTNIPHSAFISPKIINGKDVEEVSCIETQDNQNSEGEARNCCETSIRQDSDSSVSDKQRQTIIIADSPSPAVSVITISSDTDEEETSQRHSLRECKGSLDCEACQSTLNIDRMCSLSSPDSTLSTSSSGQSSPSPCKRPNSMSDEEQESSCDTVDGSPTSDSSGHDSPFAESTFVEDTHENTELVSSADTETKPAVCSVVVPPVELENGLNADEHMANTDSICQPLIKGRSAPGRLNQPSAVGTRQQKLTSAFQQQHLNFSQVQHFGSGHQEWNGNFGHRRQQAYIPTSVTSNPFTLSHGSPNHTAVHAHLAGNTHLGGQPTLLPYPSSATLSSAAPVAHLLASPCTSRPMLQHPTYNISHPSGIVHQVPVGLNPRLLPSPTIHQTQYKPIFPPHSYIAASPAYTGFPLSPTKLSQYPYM
# [9] = target: IKK-BETA (Homo sapiens, UniProt O14920); assay: kinase panel; assay type: biochemical
# [10] = tested on: Nicotinic (CNS) Receptor; assay: Nicotinic; assay type: binding; settings: human IMR32 cells
# [11] = target: SGK1 (Homo sapiens, UniProt O00141); assay: kinase panel; assay type: biochemical
# Chain of SGK1 (O00141 whole entry): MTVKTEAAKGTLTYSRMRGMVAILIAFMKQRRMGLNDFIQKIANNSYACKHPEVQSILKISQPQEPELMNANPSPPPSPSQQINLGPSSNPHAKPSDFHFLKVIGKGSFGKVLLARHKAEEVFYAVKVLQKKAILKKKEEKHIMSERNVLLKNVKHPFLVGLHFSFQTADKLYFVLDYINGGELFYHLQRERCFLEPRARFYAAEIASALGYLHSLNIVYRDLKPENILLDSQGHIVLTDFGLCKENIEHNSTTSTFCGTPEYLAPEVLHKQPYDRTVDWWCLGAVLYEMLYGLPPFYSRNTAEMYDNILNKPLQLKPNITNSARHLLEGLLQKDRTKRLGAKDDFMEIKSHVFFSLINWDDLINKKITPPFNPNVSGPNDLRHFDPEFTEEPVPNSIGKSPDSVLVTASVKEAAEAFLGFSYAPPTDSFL
# [12] = target: HCK (Homo sapiens, UniProt P08631); assay: kinase panel; assay type: biochemical
# [13] = target: IRAK4 (Homo sapiens, UniProt Q9NWZ3); assay: kinase panel; assay type: biochemical
# Chain of IRAK4 (Q9NWZ3 whole entry): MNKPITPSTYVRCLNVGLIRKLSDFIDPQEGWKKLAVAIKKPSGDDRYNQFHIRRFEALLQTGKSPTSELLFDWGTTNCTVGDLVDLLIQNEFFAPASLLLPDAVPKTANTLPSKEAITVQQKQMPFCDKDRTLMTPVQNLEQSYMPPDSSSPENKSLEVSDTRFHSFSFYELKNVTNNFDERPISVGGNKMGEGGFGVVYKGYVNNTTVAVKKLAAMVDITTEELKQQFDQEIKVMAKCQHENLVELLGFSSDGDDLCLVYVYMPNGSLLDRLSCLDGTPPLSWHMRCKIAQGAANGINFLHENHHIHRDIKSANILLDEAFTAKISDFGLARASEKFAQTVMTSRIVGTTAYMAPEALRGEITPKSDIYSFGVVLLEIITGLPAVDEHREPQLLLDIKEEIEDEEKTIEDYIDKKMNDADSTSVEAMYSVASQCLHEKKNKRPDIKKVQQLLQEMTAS
# [14] = target: CSK (Homo sapiens, UniProt P41240); assay: kinase panel; assay type: biochemical
# [15] = target: ALK2 (Homo sapiens, UniProt Q04771); assay: kinase panel; assay type: biochemical
# Chain of ALK2 (Q04771 21-509): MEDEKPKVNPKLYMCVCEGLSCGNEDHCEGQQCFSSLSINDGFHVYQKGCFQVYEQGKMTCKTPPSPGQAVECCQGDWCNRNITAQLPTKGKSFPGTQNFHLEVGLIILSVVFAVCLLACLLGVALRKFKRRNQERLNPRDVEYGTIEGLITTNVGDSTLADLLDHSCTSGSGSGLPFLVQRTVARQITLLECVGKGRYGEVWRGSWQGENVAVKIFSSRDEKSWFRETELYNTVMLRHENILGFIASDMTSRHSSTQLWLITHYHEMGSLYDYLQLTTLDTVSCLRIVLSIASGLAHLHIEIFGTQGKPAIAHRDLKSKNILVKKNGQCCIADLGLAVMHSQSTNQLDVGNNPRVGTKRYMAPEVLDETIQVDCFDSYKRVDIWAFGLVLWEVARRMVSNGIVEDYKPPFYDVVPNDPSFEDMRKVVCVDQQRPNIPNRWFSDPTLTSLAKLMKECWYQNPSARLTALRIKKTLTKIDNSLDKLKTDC
# [16] = target: RSK3 (Homo sapiens, UniProt Q15349); assay: kinase panel; assay type: biochemical
# [17] = target: MAPKAPK3 (Homo sapiens, UniProt Q16644); assay: kinase panel; assay type: biochemical
# [18] = target: PKA (Homo sapiens, UniProt P17612); assay: kinase panel; assay type: biochemical
# [19] = target: PAK3 (Homo sapiens, UniProt O75914); assay: kinase panel; assay type: biochemical
# [20] = target: PKACB (Homo sapiens, UniProt P22694); assay: kinase panel; assay type: biochemical
# [21] = target: PRKD3 (Homo sapiens, UniProt O94806); assay: kinase panel; assay type: biochemical
# [22] = target: Dopamine D2 receptor (Homo sapiens, UniProt P14416); assay: Dopamine D2 receptor assay; assay type: binding
# Chain of Dopamine D2 receptor (P14416 whole entry, species assumed): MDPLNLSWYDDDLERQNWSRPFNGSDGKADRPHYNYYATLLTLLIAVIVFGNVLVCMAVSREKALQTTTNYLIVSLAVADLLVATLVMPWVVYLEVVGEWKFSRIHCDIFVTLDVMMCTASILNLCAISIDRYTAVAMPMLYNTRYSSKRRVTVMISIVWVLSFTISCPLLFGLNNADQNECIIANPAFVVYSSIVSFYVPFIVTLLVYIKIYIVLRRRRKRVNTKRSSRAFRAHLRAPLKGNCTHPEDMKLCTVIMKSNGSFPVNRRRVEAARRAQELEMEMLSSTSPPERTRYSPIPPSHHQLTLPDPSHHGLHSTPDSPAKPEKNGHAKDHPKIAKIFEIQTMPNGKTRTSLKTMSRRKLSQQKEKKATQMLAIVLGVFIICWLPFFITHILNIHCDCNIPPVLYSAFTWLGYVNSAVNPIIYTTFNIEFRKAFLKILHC
# [23] = target: HIPK1 (Homo sapiens, UniProt Q86Z02); assay: kinase panel; assay type: biochemical
# Chain of HIPK1 (Q86Z02 whole entry): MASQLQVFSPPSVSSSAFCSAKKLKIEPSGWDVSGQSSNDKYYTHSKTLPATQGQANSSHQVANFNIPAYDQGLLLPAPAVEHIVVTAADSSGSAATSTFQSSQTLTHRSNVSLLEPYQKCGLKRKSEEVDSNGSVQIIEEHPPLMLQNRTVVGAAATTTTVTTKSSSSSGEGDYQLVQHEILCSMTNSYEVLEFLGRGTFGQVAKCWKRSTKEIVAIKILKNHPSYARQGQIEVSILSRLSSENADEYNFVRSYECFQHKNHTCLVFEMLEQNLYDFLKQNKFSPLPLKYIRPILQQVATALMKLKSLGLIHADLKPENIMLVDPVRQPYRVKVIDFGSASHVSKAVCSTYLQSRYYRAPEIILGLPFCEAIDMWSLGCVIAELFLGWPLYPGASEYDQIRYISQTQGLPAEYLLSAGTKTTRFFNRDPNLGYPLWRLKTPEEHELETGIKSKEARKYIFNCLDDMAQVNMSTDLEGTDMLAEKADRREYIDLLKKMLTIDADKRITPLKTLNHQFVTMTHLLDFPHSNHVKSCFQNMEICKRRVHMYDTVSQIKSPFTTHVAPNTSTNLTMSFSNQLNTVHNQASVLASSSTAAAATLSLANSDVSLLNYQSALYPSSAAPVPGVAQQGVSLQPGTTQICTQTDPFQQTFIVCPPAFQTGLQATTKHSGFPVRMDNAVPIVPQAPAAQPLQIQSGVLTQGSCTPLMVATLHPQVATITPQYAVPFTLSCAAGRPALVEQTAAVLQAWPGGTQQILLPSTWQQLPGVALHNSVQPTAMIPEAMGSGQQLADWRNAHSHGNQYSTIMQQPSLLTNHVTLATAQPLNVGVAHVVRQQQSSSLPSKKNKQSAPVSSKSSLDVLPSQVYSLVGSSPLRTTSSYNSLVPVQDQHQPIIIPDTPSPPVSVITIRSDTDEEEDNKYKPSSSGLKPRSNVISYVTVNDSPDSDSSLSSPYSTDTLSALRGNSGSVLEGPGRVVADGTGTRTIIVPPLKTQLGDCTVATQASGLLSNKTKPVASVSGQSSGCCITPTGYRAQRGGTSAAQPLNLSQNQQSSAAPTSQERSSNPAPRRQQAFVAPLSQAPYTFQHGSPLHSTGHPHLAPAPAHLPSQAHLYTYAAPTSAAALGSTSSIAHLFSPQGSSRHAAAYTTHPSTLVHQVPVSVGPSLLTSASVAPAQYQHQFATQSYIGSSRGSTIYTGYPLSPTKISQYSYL
# [24] = target: MER (Homo sapiens, UniProt Q12866); assay: kinase panel; assay type: biochemical
# [25] = target: FES (Homo sapiens, UniProt P07332); assay: kinase panel; assay type: biochemical
# Chain of FES (P07332 whole entry): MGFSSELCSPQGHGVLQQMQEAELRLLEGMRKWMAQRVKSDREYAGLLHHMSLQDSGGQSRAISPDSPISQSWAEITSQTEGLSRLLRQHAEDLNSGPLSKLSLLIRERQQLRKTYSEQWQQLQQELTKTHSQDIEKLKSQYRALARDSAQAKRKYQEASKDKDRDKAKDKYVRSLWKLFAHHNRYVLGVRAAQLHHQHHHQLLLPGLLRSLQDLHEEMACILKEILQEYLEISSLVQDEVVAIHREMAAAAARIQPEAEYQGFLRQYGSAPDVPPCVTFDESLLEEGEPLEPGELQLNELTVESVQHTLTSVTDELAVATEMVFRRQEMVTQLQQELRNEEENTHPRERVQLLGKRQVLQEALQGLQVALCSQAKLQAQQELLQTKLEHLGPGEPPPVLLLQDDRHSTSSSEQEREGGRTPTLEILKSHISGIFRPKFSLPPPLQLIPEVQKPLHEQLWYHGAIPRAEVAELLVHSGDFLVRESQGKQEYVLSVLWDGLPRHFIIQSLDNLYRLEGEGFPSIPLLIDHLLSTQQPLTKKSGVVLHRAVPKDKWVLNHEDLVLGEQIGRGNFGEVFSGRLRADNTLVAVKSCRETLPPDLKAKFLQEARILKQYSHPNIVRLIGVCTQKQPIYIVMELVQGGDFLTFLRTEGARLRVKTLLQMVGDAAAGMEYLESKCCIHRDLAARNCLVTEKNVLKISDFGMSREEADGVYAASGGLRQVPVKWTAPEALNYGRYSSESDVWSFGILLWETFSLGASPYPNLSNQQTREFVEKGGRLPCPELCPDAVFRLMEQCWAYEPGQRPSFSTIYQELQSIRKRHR
# [26] = target: MELK (Homo sapiens, UniProt Q14680); assay: kinase panel; assay type: biochemical
# [27] = target: TNK1 (Homo sapiens, UniProt Q13470); assay: kinase panel; assay type: biochemical
# [28] = target: CDK9-CYCLINT1 (Homo sapiens, UniProt P50750); assay: kinase panel; assay type: biochemical
# [29] = target: PKC-IOTA (Homo sapiens, UniProt P41743); assay: kinase panel; assay type: biochemical
# [30] = target: FMS (Homo sapiens, UniProt P07333); assay: kinase panel; assay type: biochemical
# [31] = target: ALK6 (Homo sapiens, UniProt O00238); assay: kinase panel; assay type: biochemical
# [32] = target: TAK1-TAB1 (Homo sapiens, UniProt O43318); assay: kinase panel; assay type: biochemical
# [33] = target: MAPK1 (Homo sapiens, UniProt P28482); assay: kinase panel; assay type: biochemical
# [34] = target: JAK1 (Homo sapiens, UniProt P23458); assay: kinase panel; assay type: biochemical
# [35] = target: CK1-GAMMA1 (Homo sapiens, UniProt Q9HCP0); assay: kinase panel; assay type: biochemical
# [36] = target: CDK7 (Homo sapiens, UniProt P50613); assay: kinase panel; assay type: biochemical
# [37] = target: P38-DELTA (Homo sapiens, UniProt O15264); assay: kinase panel; assay type: biochemical
# [38] = target: Alpha1A adrenergic (Homo sapiens, UniProt P35348); assay: Alpha1A adrenergic calcium flux assay; assay type: cell-based
# [39] = target: EPH-A1 (Homo sapiens, UniProt P21709); assay: kinase panel; assay type: biochemical
# [40] = target: SRMS (Homo sapiens, UniProt Q9H3Y6); assay: kinase panel; assay type: biochemical
# [41] = target: HASPIN (Homo sapiens, UniProt Q8TF76); assay: kinase panel; assay type: biochemical
# [42] = target: TEC (Homo sapiens, UniProt P42680); assay: kinase panel; assay type: biochemical
# [43] = tested on: CYP3A4; assay: CYP3A4 Induction Reporter Gene; assay type: cell-based; settings: human, CYP3A4 induction reporter gene assay (cell line not given)
# [44] = target: CAMK1D (Homo sapiens, UniProt Q8IU85); assay: kinase panel; assay type: biochemical
# [45] = target: PDGFR-BETA (Homo sapiens, UniProt P09619); assay: kinase panel; assay type: biochemical
smiles,measurement,setting,value
"O=C(Nc1nccs1)C(c1cc(F)ccc1O)N1Cc2ccccc2C1=O (stereo not drawn) [EAI045, 2-(5-fluoro-2-hydroxyphenyl)-2-(1-oxo-2,3-dihydro-1H-isoindol-2-yl)-N-(1,3-thiazol-2-yl)acetamide]",inhibition at 1 µM,[1],0%
same,inhibition at 1 µM,[2],3%
same,inhibition at 1 µM,[3],0%
same,IC50,[4],> 30 µM
same,inhibition at 1 µM,[5],0%
same,inhibition at 1 µM,[6],1%
same,inhibition at 1 µM,[7],10%
same,inhibition at 1 µM,[8],0%
same,inhibition at 1 µM,[9],0%
same,IC50,[10],> 30 µM
same,inhibition at 1 µM,[11],6%
same,inhibition at 1 µM,[12],0%
same,inhibition at 1 µM,[13],0%
same,inhibition at 1 µM,[14],0%
same,inhibition at 1 µM,[15],0%
same,inhibition at 1 µM,[16],0%
same,inhibition at 1 µM,[17],0%
same,inhibition at 1 µM,[18],3%
same,inhibition at 1 µM,[19],0%
same,inhibition at 1 µM,[20],0%
same,inhibition at 1 µM,[21],0%
same,IC50,[22],> 30 µM
same,inhibition at 1 µM,[23],1%
same,inhibition at 1 µM,[24],8%
same,inhibition at 1 µM,[25],2%
same,inhibition at 1 µM,[26],0%
same,inhibition at 1 µM,[27],0%
same,inhibition at 1 µM,[28],6%
same,inhibition at 1 µM,[29],0%
same,inhibition at 1 µM,[30],0%
same,inhibition at 1 µM,[31],0%
same,inhibition at 1 µM,[32],0%
same,inhibition at 1 µM,[33],0%
same,inhibition at 1 µM,[34],0%
same,inhibition at 1 µM,[35],2%
same,inhibition at 1 µM,[36],0%
same,inhibition at 1 µM,[37],0%
same,IC50,[38],> 30 µM
same,inhibition at 1 µM,[39],0%
same,inhibition at 1 µM,[40],0%
same,inhibition at 1 µM,[41],1%
same,inhibition at 1 µM,[42],4%
same,IC50,[43],> 10 µM
same,inhibition at 1 µM,[44],0%
same,inhibition at 1 µM,[45],4%
